Activity calls are given as the source filed them.
How the values were obtained:
[1] = biological target: Luciferin 4-monooxygenase (Photinus pyralis, UniProt P08659); test: firefly luciferase enzyme inhibitors, dose response, biochemical, luminescence (AID 1891)
[2] = Luminescence Cell-Based Dose Confirmation HTS to Identify Inhibitors of Platelet Dense Granule Release. [Related pubchem assays: 1663 (Primary HTS), 1678 (Summary of Project)]; format: functional
[3] = inhibitors of SFLLRN-triggered platelet P-selectin exposure, dose response, cell-based, fluorescence, flow cytometry, human platelets (AID 2511); format: functional
[4] = SFLLRN-induced P-Selectin Platelet Surface Expression Measured in Cell-Based System Using Flow Cytometry - 2016-03_Inhibitor_Dose_DryPowder_Activity_Set3. [Related pubchem assays (depositor defined):AID1678]; format: functional
[5] = blockers of SFLLRN-triggered platelet ATP secretion – cell-based, human platelets, luminescence, dry powder, dose response (AID 493100); format: functional
[6] = Luminescence Cell-Based Dose Response Follow up to Identify Inhibitors of Platelet Dense Granule Release. [Related pubchem assays (depositor defined):AID1663, AID1678, AID1889, AID2519]; format: functional
[7] = test system: Escherichia coli; test: microbe, parasite or virus in culture
[8] = biological target: T1, Tyrosine-protein phosphatase non-receptor type 7 (Homo sapiens, UniProt P35236); format: functional
T1 sequence (P35236 whole entry): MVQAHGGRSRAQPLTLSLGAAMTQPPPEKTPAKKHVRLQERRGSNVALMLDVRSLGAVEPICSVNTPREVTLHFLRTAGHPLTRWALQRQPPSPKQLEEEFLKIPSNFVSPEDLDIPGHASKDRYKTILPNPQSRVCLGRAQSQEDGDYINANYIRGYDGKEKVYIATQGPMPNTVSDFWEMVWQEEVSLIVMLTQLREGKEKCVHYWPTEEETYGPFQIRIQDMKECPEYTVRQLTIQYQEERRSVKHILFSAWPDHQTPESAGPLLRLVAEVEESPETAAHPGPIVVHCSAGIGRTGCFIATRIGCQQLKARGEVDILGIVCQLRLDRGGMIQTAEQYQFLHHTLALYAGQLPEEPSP

[9] = biological target: T2, RNA-binding protein pos-1 (Caenorhabditis elegans, UniProt G5EF15); test: inhibitors of POS-1/mex-3 RNA binding, dose response, biochemical, fluorescence polarization (AID 1964);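 further: purified POS-1 fused to maltose binding protein made in E. coli; potency of compounds blocking POS-1 binding to fluorescent RNA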
T2 sequence (G5EF15 whole entry): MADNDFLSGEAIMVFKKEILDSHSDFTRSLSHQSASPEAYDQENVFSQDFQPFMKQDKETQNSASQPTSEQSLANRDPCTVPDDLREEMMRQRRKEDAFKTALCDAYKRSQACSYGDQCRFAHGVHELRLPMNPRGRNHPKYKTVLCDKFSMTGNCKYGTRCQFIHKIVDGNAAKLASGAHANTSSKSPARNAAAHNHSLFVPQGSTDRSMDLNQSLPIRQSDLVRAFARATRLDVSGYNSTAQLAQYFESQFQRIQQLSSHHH

[10] = biological target: Glyceraldehyde-3-phosphate dehydrogenase (Homo sapiens, UniProt P04406)
[11] = biological target: T3, Zinc finger protein mex-5 (Caenorhabditis elegans, UniProt Q9XUB2); test: MEX-5/TCR-2 RNA interaction inhibitors, dose response, biochemical, C. elegans, fluorescence polarization (AID 1960)
T3 sequence (Q9XUB2 whole entry): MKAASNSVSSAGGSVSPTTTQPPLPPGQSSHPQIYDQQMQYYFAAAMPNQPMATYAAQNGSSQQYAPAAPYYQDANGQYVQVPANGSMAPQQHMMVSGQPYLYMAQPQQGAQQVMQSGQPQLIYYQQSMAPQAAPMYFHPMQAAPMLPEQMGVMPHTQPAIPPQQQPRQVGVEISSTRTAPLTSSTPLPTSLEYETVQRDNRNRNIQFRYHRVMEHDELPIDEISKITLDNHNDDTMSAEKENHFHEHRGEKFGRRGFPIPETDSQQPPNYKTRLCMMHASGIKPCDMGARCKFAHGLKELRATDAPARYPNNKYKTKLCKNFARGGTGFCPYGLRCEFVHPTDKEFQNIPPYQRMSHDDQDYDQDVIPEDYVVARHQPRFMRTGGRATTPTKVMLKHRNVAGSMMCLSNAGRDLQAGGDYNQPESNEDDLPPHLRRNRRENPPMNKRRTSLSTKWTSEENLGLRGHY

[12] = biological target: Heat shock cognate 71 kDa protein (Homo sapiens, UniProt P11142); test: In Vitro Hsc70 Dose Response Fluorescence Polarization Assay. [Related pubchem assays: 1072 ]
[13] = biological target: Heat shock 70 kDa protein 1A (Homo sapiens, UniProt P0DMV8); test: Hsp70 inhibitors, SAR follow-up, biochemical, fluorescence polarization (AID 1072)
[14] = biological target: T4, Dual specificity protein phosphatase 6 (Rattus norvegicus, UniProt Q64346)
T4 sequence (Q64346 whole entry): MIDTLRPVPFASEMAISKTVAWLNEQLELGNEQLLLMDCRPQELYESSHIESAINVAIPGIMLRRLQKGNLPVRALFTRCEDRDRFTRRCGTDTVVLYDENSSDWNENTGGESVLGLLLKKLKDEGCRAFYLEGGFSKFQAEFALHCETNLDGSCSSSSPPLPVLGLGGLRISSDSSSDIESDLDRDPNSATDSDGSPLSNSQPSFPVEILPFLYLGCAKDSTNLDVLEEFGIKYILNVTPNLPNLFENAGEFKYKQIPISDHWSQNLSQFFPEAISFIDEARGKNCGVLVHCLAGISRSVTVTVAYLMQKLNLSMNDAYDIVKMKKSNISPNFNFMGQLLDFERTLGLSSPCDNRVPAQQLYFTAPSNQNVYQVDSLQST

[15] = biological target: T4, Dual specificity protein phosphatase 6; format: functional
[16] = inhibitors of firefly luciferase expression or activity, dose response, H4 neuroglioma cells, luminescence (AID 1990); format: functional, cell-based
[17] = Luminescence Cell-Based Dose Response HTS to Identify Inhibitors of 5'UTR Stem-Loop Driven Prion Protein mRNA Translation in H4 Neuroglioblastoma Cells. [Related pubchem assays: 1827 (Project Summary), 1813 (Primary HTS)]; format: functional
[18] = inhibitors of SNCA 5'UTR-driven reporter translation, confirmation, H4 neuroglioma cells, luminescence (AID 1988); format: functional, cell-based
[19] = Luminescence Cell-Based Dose Retest to Confirm Inhibitors of Cancer Stem Cells. [Related pubchem assays (depositor defined):AID2717, AID2721]; format: functional; conditions: Homo sapiens
[20] = biological target: T5, Microphthalmia-associated transcription factor (Homo sapiens, UniProt O75030); test: TRPM1 promoter luciferase signal decrease, dose response, MITF inhibitor project, cell-based, SK-MEL-5, cherry-picked, set 3 (AID 493073); format: functional
T5 sequence (O75030 whole entry): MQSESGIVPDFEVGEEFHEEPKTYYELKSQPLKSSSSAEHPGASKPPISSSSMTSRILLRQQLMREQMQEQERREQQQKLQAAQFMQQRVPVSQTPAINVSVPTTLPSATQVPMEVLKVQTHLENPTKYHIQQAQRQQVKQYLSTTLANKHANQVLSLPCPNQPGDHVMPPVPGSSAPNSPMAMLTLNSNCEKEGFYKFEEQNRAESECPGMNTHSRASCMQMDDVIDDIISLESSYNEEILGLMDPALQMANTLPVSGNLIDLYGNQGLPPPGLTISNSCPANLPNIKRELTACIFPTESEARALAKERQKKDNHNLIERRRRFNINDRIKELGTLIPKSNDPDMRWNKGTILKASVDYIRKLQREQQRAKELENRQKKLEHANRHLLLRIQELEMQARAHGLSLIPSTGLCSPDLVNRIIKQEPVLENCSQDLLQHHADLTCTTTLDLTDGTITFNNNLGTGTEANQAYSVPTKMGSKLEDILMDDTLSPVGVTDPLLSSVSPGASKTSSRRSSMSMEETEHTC

[21] = test system: A-375; test: MITF: Counter assay: A375 proliferation Measured in Cell-Based System Using Plate Reader - 2084-03_Inhibitor_Dose_DryPowder_Activity. [Related pubchem assays (depositor defined):AID488944]; format: functional; conditions: Homo sapiens

Sequence of Heat shock 70 kDa protein 1A (P0DMV8 whole entry): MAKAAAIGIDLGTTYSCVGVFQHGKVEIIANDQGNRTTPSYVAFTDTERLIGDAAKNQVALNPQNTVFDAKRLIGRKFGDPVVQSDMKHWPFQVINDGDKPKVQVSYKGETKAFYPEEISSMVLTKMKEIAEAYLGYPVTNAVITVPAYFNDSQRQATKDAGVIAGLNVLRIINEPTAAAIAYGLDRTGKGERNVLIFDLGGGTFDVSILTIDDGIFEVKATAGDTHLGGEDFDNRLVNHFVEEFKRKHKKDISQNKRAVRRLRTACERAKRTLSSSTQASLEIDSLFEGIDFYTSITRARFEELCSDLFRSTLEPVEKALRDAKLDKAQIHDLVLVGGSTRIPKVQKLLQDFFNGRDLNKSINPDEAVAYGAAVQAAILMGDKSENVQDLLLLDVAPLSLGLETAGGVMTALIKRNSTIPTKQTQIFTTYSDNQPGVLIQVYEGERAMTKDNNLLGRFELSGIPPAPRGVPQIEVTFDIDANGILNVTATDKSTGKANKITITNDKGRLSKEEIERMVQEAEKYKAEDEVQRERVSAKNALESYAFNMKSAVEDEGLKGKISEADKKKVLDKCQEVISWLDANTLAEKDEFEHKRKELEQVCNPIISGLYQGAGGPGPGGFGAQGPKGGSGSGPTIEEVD
Sequence of Luciferin 4-monooxygenase (P08659 whole entry): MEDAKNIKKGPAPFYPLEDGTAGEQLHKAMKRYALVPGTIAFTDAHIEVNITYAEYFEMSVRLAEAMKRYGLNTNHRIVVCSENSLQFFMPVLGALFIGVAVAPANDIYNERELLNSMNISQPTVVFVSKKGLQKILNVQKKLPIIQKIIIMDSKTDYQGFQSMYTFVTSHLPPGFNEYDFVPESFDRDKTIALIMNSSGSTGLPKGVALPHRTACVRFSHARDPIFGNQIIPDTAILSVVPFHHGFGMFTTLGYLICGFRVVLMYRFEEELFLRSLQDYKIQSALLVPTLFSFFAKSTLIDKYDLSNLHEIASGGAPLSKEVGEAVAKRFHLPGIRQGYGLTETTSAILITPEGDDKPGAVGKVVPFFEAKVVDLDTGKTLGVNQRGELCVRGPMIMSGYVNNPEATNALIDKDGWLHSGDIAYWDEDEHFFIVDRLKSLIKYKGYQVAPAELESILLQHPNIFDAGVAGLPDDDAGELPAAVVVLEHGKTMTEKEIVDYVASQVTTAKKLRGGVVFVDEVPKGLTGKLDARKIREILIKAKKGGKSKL
Sequence of Glyceraldehyde-3-phosphate dehydrogenase (P04406 whole entry): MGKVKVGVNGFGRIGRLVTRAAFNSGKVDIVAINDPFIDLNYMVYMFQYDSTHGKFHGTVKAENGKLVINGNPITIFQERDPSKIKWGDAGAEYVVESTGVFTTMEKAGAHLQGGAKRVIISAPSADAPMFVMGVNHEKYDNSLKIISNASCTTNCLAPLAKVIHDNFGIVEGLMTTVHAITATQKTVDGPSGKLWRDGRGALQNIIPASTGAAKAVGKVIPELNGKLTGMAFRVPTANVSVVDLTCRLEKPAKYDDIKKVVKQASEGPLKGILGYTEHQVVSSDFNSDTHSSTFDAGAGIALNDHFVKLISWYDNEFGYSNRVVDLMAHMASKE
Sequence of Heat shock cognate 71 kDa protein (P11142 whole entry): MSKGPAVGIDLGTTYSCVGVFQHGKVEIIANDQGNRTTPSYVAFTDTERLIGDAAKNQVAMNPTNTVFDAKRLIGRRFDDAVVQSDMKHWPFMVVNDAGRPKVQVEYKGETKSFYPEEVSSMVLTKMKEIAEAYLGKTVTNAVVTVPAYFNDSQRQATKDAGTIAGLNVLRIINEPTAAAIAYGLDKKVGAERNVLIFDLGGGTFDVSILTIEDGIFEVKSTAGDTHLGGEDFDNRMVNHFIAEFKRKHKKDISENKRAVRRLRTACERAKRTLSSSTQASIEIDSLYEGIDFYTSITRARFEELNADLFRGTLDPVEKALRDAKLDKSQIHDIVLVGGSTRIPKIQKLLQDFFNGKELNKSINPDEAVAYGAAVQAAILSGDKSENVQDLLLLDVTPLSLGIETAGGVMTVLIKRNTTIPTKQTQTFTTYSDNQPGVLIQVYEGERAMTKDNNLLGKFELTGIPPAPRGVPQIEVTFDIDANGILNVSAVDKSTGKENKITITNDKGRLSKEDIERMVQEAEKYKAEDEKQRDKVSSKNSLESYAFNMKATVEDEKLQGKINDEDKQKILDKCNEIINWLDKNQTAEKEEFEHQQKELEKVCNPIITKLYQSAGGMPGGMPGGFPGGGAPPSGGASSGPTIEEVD

CCCC(=O)Nc1cccc(NC(=O)c2ccccc2Br)c1
active: EC50 [2] 1.87 µM | EC50 [3] < 0.3 µM | AC50 [4] < 0.156 µM | AC50 [5] 11.2 µM | EC50 [6] 4.87 µM
> 112 µM (not active): EC50 [1]

CCCCOC(=O)C1=C(C)NC(=O)NC1c1ccc2c(c1)OCO2 (stereo unspecified)
active: AC50 [7] 23.6 µM

O=C(O)C1Nc2c(cccc2C(F)(F)F)C2C=CCC12 (stereo unspecified)
> 100 µM (not active): IC50 [10]
active: IC50 [8] 5.06 µM | EC50 [9] 26.7 µM | EC50 [11] 17.7 µM | IC50 [12] 20.2 µM | IC50 [13] 8.36 µM | IC50 [14] 9.2 µM | IC50 [15] 7.72 µM

CC(=O)Nc1sc(C)c(C)c1C(=O)OCC(=O)N(CC(C)C)c1c(N)n(Cc2ccccc2)c(=O)[nH]c1=O
active: EC50 [16] 10.2 µM | EC50 [17] 9.81 µM | EC50 [18] 3.96 µM | AC50 [19] 1.64 µM | AC50 [20] 5.29 µM | AC50 [21] 7.68 µM
